Experimental data as given in ChEMBL document CHEMBL5705887, “Distinct concentration-dependent effects of the polo-like kinase 1-specific inhibitor GSK461364A, including differential effect on apoptosis” (Cancer Res, 2009).
Calls of active or inactive are those of the source. The calls are words filed in the database; no cut-off is given here.

Tests used:
HT-1080 [1] = assay: Antiproliferative activity against human HT-1080 cells assessed as growth inhibition incubated for 72 hrs by celltiter-glo assay; type: functional
BXPC-3 = assay: Antiproliferative activity against human BXPC-3 cells assessed as viable cell signal at maximum growth inhibition incubated for 72 hrs by celltiter-glo assay relative to control; type: functional
OVCAR-3 = assay: Antiproliferative activity against human OVCAR-3 cells assessed as of viable cell signal at minimum maximum cell growth incubated for 72 hrs by celltiter-glo assay relative to control; type: functional
U2OS [2] = assay: Induction of mitotic arrest in human U2OS cells expressing fused cyclin B1-GFP at 10 to 250 nmol/L incubated for 24 hrs by image based analysis; type: functional, cell-based; settings: dose 10-250 nmol/L
[3] = target: Ribosomal protein S6 kinase alpha-1 (Rattus norvegicus) (UniProt Q63531); assay: Inhibition of recombinant rat RSK1 at 10 uM relative to control
Sequence of Ribosomal protein S6 kinase alpha-1 (Rattus norvegicus) (Q63531 whole entry): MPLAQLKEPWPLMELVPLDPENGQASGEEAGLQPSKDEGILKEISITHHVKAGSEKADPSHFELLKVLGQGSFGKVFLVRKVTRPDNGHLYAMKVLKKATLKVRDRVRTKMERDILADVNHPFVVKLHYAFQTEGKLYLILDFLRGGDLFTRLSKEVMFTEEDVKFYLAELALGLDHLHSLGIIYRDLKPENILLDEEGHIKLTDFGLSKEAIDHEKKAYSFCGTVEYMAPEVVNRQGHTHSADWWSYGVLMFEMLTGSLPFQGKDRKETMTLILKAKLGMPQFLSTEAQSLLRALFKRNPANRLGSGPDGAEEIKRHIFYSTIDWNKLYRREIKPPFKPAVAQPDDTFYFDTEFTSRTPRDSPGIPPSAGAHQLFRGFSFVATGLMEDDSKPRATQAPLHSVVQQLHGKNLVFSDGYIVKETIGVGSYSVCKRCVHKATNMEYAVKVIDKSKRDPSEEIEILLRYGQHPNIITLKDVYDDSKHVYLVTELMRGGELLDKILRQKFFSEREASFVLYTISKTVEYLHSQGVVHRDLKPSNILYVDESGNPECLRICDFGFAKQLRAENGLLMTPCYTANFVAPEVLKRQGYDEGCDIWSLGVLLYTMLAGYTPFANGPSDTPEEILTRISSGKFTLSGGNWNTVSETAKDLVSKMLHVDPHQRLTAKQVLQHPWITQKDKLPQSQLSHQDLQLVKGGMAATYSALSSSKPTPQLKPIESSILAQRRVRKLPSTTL

SK-MEL-5 = assay: Antiproliferative activity against human SK-MEL-5 cells assessed as viable cell signal at maximum growth inhibition incubated for 72 hrs by celltiter-glo assay relative to control; type: functional
U2OS [4] = assay: Antiproliferative activity against human U2OS cells assessed as growth inhibition incubated for 72 hrs by celltiter-glo assay; type: functional
SK-OV-3 = assay: Antiproliferative activity against human SK-OV-3 cells assessed as growth inhibition incubated for 72 hrs by celltiter-glo assay; type: functional
SK-MEL-28 = assay: Antiproliferative activity against human SK-MEL-28 cells assessed as growth inhibition incubated for 72 hrs by celltiter-glo assay; type: functional
MCF7 = assay: Antiproliferative activity against human MCF7 cells assessed as growth inhibition incubated for 72 hrs by celltiter-glo assay; type: functional
ZR-75-1 [5] = assay: Antiproliferative activity against human ZR-75-1 cells assessed as of viable cell signal at minimum maximum cell growth incubated for 72 hrs by celltiter-glo assay relative to control; type: functional
HT-1080 [6] = assay: Antiproliferative activity against human HT-1080 cells assessed as viable cell signal at maximum growth inhibition incubated for 72 hrs by celltiter-glo assay relative to control; type: functional
PANC-1 = assay: Antiproliferative activity against human PANC-1 cells assessed as of viable cell signal at minimum maximum cell growth incubated for 72 hrs by celltiter-glo assay relative to control; type: functional
RPMI-8226 = assay: Antiproliferative activity against human RPMI-8226 cells assessed as of viable cell signal at minimum maximum cell growth incubated for 72 hrs by celltiter-glo assay relative to control; type: functional
K562 = assay: Antiproliferative activity against human K562 cells assessed as growth inhibition incubated for 72 hrs by celltiter-glo assay; type: functional
SJSA-1 = assay: Antiproliferative activity against human SJSA-1 cells assessed as of viable cell signal at minimum maximum cell growth incubated for 72 hrs by celltiter-glo assay relative to control; type: functional
OVCAR-4 = assay: Antiproliferative activity against human OVCAR-4 cells assessed as of viable cell signal at minimum maximum cell growth incubated for 72 hrs by celltiter-glo assay relative to control; type: functional
ZR-75-1 [7] = assay: Growth inhibition of human ZR-75-1 cells assessed as viable cells at 250 nmol/L measured immediately by celltiter-glo assay; type: functional; settings: read-out: Activity
SW-620 = assay: Antiproliferative activity against human SW620 cells assessed as viable cell signal at maximum growth inhibition incubated for 72 hrs by celltiter-glo assay relative to control; type: functional
DLD-1 = assay: Antiproliferative activity against human DLD-1 cells assessed as of viable cell signal at minimum maximum cell growth incubated for 72 hrs by celltiter-glo assay relative to control; type: functional
[8] = target: Testis-specific serine/threonine-protein kinase 1 (Homo sapiens) (UniProt Q9BXA7); assay: Inhibition of full length his6-tagged recombinant human TSSK1 expressed in baculovirus Sf21 insect cells at 10 uM relative to control
Sequence of Testis-specific serine/threonine-protein kinase 1 (Homo sapiens) (Q9BXA7 whole entry): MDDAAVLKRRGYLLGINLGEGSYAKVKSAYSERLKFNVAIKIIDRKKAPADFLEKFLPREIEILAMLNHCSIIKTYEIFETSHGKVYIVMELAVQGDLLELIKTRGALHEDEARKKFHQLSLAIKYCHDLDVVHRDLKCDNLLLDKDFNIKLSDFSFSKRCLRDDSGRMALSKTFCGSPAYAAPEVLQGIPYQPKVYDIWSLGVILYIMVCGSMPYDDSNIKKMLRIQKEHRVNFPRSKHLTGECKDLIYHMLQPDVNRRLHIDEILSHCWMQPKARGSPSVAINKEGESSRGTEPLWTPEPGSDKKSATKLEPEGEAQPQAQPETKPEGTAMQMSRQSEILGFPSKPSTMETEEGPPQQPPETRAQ

SCLC = assay: Antiproliferative activity against human SCLC cells assessed as of viable cell signal at minimum maximum cell growth incubated for 72 hrs by celltiter-glo assay relative to control; type: functional
NCI-H727 [9] = assay: Antiproliferative activity against human NCI-H727 cells assessed as viable cell signal at maximum growth inhibition incubated for 72 hrs by celltiter-glo assay relative to control; type: functional
A-431 = assay: Antiproliferative activity against human A-431 cells assessed as of viable cell signal at minimum maximum cell growth incubated for 72 hrs by celltiter-glo assay relative to control; type: functional
[10] = target: Serine/threonine-protein kinase BRSK2 (Homo sapiens) (UniProt Q8IWQ3); assay: Inhibition of full length N-terminal his6-tagged recombinant human BRSK2 expressed in baculovirus Sf21 cells at 10 uM relative to control
Sequence of Serine/threonine-protein kinase BRSK2 (Homo sapiens) (Q8IWQ3 whole entry): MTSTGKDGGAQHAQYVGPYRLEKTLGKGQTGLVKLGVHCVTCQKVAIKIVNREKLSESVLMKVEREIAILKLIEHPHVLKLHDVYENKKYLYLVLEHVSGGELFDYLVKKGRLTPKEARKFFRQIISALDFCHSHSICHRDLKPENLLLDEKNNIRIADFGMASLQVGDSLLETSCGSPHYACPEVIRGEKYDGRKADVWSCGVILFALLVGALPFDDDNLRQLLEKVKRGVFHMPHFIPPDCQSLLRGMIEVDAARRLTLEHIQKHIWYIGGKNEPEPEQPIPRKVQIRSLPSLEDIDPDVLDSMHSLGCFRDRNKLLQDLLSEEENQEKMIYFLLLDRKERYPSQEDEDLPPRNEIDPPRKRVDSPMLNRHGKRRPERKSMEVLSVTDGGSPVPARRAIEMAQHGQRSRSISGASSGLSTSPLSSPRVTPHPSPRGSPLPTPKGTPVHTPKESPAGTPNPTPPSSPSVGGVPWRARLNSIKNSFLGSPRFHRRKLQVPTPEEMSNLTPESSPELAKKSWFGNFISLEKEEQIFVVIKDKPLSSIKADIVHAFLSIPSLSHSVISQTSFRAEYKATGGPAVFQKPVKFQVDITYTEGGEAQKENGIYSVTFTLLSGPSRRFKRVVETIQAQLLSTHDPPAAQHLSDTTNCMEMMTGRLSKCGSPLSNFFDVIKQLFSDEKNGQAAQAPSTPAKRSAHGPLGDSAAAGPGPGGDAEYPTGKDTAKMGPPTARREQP

SK-MEL3 = assay: Antiproliferative activity against human SK-MEL3 cells assessed as growth inhibition incubated for 72 hrs by celltiter-glo assay; type: functional
A498 = assay: Antiproliferative activity against human A498 cells assessed as of viable cell signal at minimum maximum cell growth incubated for 72 hrs by celltiter-glo assay relative to control; type: functional
Panc 02.03 = assay: Antiproliferative activity against human Panc 02.03 cells assessed as of viable cell signal at minimum maximum cell growth incubated for 72 hrs by celltiter-glo assay relative to control; type: functional
LNCaP = assay: Antiproliferative activity against human LNCaP cells assessed as viable cell signal at maximum growth inhibition incubated for 72 hrs by celltiter-glo assay relative to control; type: functional
[11] = target: Calcium/calmodulin-dependent protein kinase type II subunit beta (Homo sapiens) (UniProt Q13554); assay: Inhibition of recombinant human CaMKII-beta at 10 uM relative to control
Sequence of Calcium/calmodulin-dependent protein kinase type II subunit beta (Homo sapiens) (Q13554 whole entry): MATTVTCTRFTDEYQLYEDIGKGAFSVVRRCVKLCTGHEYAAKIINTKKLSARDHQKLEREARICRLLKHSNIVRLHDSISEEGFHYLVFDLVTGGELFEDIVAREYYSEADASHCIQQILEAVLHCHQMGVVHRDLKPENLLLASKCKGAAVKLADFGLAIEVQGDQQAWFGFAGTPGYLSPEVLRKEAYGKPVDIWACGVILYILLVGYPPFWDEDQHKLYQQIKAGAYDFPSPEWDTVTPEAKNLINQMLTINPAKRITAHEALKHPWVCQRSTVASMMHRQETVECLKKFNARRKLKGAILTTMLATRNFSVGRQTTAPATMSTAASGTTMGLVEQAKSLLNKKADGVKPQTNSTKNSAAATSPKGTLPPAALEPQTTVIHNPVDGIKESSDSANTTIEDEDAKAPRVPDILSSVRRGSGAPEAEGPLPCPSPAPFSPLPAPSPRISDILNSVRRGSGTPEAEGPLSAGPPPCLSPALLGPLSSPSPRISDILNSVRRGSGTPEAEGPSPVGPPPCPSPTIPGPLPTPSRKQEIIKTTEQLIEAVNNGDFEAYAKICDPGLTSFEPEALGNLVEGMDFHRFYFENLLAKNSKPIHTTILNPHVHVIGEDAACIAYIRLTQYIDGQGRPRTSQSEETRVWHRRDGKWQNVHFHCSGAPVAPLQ

A-427 = assay: Antiproliferative activity against human A-427 cells assessed as growth inhibition incubated for 72 hrs by celltiter-glo assay; type: functional
Calu-3 = assay: Antiproliferative activity against human Calu-3 cells assessed as growth inhibition incubated for 72 hrs by celltiter-glo assay; type: functional
COLO 205 [12] = assay: Antiproliferative activity against human COLO 205 cells assessed as of viable cell signal at minimum maximum cell growth incubated for 72 hrs by celltiter-glo assay relative to control; type: functional
COLO 205 [13] = assay: Antitumor activity against human COLO 205 cells xenografted in ip dosed Nude mouse assessed as increase in pIk1 level measured at 24 to 48 hrs by […]; type: functional, organism-based; settings: dose 50-100 mg/kg, time 24-48 hrs
SAOS-2 = assay: Antiproliferative activity against human SAOS-2 cells assessed as viable cell signal at maximum growth inhibition incubated for 72 hrs by celltiter-glo assay relative to control; type: functional
NCI-H82 = assay: Antiproliferative activity against human NCI-H82 cells assessed as growth inhibition incubated for 72 hrs by celltiter-glo assay; type: functional
A2780 = assay: Antiproliferative activity against human A2780 cells assessed as of viable cell signal at minimum maximum cell growth incubated for 72 hrs by celltiter-glo assay relative to control; type: functional
NCI-H727 [14] = assay: Antiproliferative activity against human NCI-H727 cells assessed as growth inhibition incubated for 72 hrs by celltiter-glo assay; type: functional
T47D = assay: Antiproliferative activity against human T47D cells assessed as viable cell signal at maximum growth inhibition incubated for 72 hrs by celltiter-glo assay relative to control; type: functional
Calu-1 = assay: Antiproliferative activity against human Calu-1 cells assessed as viable cell signal at maximum growth inhibition incubated for 72 hrs by celltiter-glo assay relative to control; type: functional

## C[C@@H](Oc1cc(-n2cnc3ccc(CN4CCN(C)CC4)cc32)sc1C(N)=O)c1ccccc1C(F)(F)F [GSK-461364]
HT-1080 [1]
  GI50: 24.6 nM
BXPC-3
  Emax: 278%
OVCAR-3
  Emin: 164%
U2OS [2]
  Activity: inactive
[3]
  inhibition: 87%
SK-MEL-5
  Emax: 258%
U2OS [4]
  GI50: 41.7 nM
SK-OV-3
  GI50: 28.9 nM
SK-MEL-28
  GI50: 381 nM
MCF7
  GI50: 6.4 nM
ZR-75-1 [5]
  Emin: 133.6%
HT-1080 [6]
  Emax: 223%
PANC-1
  Emin: 114.1%
RPMI-8226
  Emin: 34.6%
K562
  GI50: 19.4 nM
SJSA-1
  Emin: 123.8%
OVCAR-4
  Emin: 164.7%
ZR-75-1 [7]
  viability at 0.25 µM: 200%
SW-620
  Emax: 634%
DLD-1
  Emin: 441.3%
[8]
  inhibition: 61%
SCLC
  Emin: 122%
NCI-H727 [9]
  Emax: 262%
A-431
  Emin: 151.5%
[10]
  inhibition: 79%
SK-MEL3
  GI50: 17.6 nM
A498
  Emin: 243.2%
Panc 02.03
  Emin: 192%
LNCaP
  Emax: 470%
[11]
  inhibition: 56%
A-427
  GI50: 22.8 nM
Calu-3
  GI50: 35.6 nM
COLO 205 [12]
  Emin: 102.6%
COLO 205 [13]
  Activity: Dose-Dependent Effect
SAOS-2
  Emax: 403%
NCI-H82
  GI50: 4.85 nM
A2780
  Emin: 68.5%
NCI-H727 [14]
  GI50: 45.2 nM
T47D
  Emax: 320%
Calu-1
  Emax: 371%
